Each block holds one molecule with its values, some of them ahead of it.
Key:
Coagulation factor X [1] = target: T1, Coagulation factor X (Homo sapiens, UniProt P00742); experiment: Compound was evaluated for inhibition of Coagulation factor X at […]
Prothrombin = Prothrombin (Homo sapiens, UniProt P00734); experiment: Compound was evaluated for inhibition of Thrombin
[2] = target: T2, Serine protease 1 (Bos taurus) (UniProt P00760); experiment: Compound was evaluated for inhibition of Trypsin at 15 uM
T2 sequence (whole entry): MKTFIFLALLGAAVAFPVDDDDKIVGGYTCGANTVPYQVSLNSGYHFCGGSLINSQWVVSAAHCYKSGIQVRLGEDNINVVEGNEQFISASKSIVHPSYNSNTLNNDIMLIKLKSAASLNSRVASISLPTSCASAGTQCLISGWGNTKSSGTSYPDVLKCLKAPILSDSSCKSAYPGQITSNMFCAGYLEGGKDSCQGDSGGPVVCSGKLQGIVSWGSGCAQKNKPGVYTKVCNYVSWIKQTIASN

Coagulation factor X [3] = target: T1, Coagulation factor X; experiment: Compound was evaluated for inhibition of Coagulation factor X at 7.5 uM
[4] = target: T3, Chymotrypsin-C (Homo sapiens) (UniProt Q99895); experiment: Compound was evaluated for inhibition of Serine protease chymotrypsin at 15 uM
T3 sequence (whole entry): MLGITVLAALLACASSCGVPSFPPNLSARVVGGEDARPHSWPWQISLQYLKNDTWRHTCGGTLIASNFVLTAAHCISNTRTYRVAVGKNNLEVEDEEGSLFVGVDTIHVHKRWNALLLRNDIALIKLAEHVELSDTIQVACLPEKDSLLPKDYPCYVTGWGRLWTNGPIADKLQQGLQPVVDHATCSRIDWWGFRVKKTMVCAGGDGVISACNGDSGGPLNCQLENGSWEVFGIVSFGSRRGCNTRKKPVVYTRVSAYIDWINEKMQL

[5] = target: T2, Serine protease 1 (Bos taurus); experiment: Compound was evaluated for inhibition of Trypsin at uM; conditions: concentration not given here
Serine protease 1 = target: T4, Serine protease 1 (Bos taurus, UniProt P00760); experiment: Compound was evaluated for inhibition of Trypsin
T4 sequence (P00760 whole entry): T2 sequence (whole entry)

[6] = target: T3, Chymotrypsin-C (Homo sapiens); experiment: Compound was evaluated for inhibition of Serine protease chymotrypsin at […]
[7] = target: T3, Chymotrypsin-C (Homo sapiens); experiment: Compound was evaluated for inhibition of Serine protease chymotrypsin at 1 uM
[8] = target: T2, Serine protease 1 (Bos taurus); experiment: Compound was evaluated for inhibition of Trypsin at 1 uM
Coagulation factor X [9] = target: T1, Coagulation factor X; experiment: Compound was evaluated for inhibition of Coagulation factor X at 1 uM
Coagulation factor X [10] = target: T1, Coagulation factor X; experiment: Compound was evaluated for inhibition of Coagulation factor X
[11] = target: T3, Chymotrypsin-C (Homo sapiens); experiment: Compound was evaluated for inhibition of Serine protease chymotrypsin at 1.7 uM
Coagulation factor X [12] = target: T1, Coagulation factor X; experiment: Compound was evaluated for inhibition of Coagulation factor X at 1.6 uM
[13] = target: T2, Serine protease 1 (Bos taurus); experiment: Compound was evaluated for inhibition of Trypsin at 1.6 uM

T1 sequence (P00742 41-179 limits assumed): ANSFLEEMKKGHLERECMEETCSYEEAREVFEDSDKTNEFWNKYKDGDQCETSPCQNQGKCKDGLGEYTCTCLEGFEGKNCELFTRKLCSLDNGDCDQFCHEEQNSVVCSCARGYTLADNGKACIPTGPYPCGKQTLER
T1 sequence (P00742 235-488 limits assumed): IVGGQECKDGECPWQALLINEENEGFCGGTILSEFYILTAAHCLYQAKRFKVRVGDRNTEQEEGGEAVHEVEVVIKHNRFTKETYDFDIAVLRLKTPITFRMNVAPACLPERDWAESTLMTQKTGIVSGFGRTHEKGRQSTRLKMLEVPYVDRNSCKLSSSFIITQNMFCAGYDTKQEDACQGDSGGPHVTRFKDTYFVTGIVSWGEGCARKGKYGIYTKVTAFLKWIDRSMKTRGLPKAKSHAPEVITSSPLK

Compound: Cc1cc(OCCCCN=C(N)N)cc(OS(=O)(=O)c2ccccc2Cl)c1
- Ki (Serine protease 1): 42000 nM

Compound: CC(=N)N1CCC(COc2cc(C)cc(OS(=O)(=O)c3ccccc3Cl)c2)CC1
- inhibition [7]: 0%
- inhibition [8]: 0%
- inhibition (Coagulation factor X [9]): 0%

Compound: Cc1cc(OC[C@H]2CC[C@H](C(=N)N)CC2)cc(OS(=O)(=O)c2ccccc2Cl)c1
- Ki (Prothrombin): 2100 nM
- inhibition (Coagulation factor X [12]): 0%
- inhibition [13]: 0%

Compound: Cc1cc(OCC2CCN(C(=N)N)CC2)cc(OS(=O)(=O)c2ccccc2Cl)c1
- Ki (Coagulation factor X [10]): > 15 µM
- Ki (Serine protease 1): > 15000 nM

Further lines, results first:

- inhibition (Coagulation factor X [1]): 0%
- Ki (Prothrombin): 69 nM
- inhibition [2]: 0%
Compound: Cc1cc(OCCCCCC(=N)N)cc(OS(=O)(=O)c2ccccc2Cl)c1

- inhibition (Coagulation factor X [3]): 0%
- Ki (Prothrombin): 460 nM
- inhibition [4]: 0%
- inhibition [5]: 0%
Compound: Cc1cc(OCCCC(=N)N)cc(OS(=O)(=O)c2ccccc2Cl)c1

- Ki (Prothrombin): 99 nM
- inhibition [6]: 0%
- Ki (Serine protease 1): 1500 nM
Compound: Cc1cc(OCc2cccc(C(=N)N)c2)cc(OS(=O)(=O)c2ccccc2Cl)c1

- Ki (Coagulation factor X [10]): 17 µM
- Ki (Prothrombin): 110 nM
- inhibition [11]: 0%
- Ki (Serine protease 1): 2700 nM
Compound: Cc1cc(OCc2ccc(C(=N)N)cc2)cc(OS(=O)(=O)c2ccccc2Cl)c1

From ChEMBL document CHEMBL1133126, “Non-peptidic phenyl-based thrombin inhibitors: exploring structural requirements of the S1 specificity pocket with amidines” (Bioorg Med Chem Lett, 2000)
